± gives the expanded uncertainty stated by the source.
Test: xn = mol fraction of the nth substance listed
Conditions: 100 kPa, Liquid; for viscosity: Capillary tube (Ostwald / Ubbelohde) method; for speed of sound: Frequency=2 MHz, Linear variable-path acoustic interferometer; for mass density: Vibrating tube method

For `CCN(CC)c1ccccc1` [N,N-diethylaniline] + CCCCCCCCCCO, the viscosity (303.15 K, x1 = 0.1141) was 7.932 ± 0.22 mPa·s, the viscosity (303.15 K, x1 = 0.2218) was 6.521 ± 0.18 mPa·s and the viscosity (303.15 K, x1 = 0.3717) was 4.96 ± 0.14 mPa·s. The viscosity (303.15 K, x1 = 0.4886) was 4.007 ± 0.11 mPa·s, the viscosity (303.15 K, x1 = 0.5815) was 3.386 ± 0.092 mPa·s and the viscosity (303.15 K, x1 = 0.6645) was 2.918 ± 0.079 mPa·s. The viscosity (303.15 K, x1 = 0.7545) was 2.494 ± 0.068 mPa·s, the viscosity (303.15 K, x1 = 0.8324) was 2.185 ± 0.059 mPa·s and the viscosity (303.15 K, x1 = 0.9121) was 1.929 ± 0.052 mPa·s. For the same molecule, the viscosity (303.15 K, x1 = 1) was 1.711 ± 0.046 mPa·s, the speed of sound (303.15 K, x1 = 0.1141) was 1364.5 ± 8.3 m/s and the speed of sound (303.15 K, x1 = 0.2218) was 1366.8 ± 8.4 m/s. It also gave a speed of sound (303.15 K, x1 = 0.3717) of 1372.3 ± 8.4 m/s, a speed of sound (303.15 K, x1 = 0.4886) of 1378.1 ± 8.4 m/s and a speed of sound (303.15 K, x1 = 0.5815) of 1383.9 ± 8.5 m/s. It also gave a speed of sound (303.15 K, x1 = 0.6645) of 1390.1 ± 8.5 m/s, a speed of sound (303.15 K, x1 = 0.7545) of 1398.3 ± 8.5 m/s and a speed of sound (303.15 K, x1 = 0.8324) of 1406.8 ± 8.6 m/s. For the same molecule, the speed of sound (303.15 K, x1 = 0.9121) was 1417.5 ± 8.7 m/s, the speed of sound (303.15 K, x1 = 1) was 1432 ± 8.7 m/s and the mass density (303.15 K, x1 = 0.1141) was 831.36 ± 1.1 kg/m3. For the same molecule, the mass density (303.15 K, x1 = 0.2218) was 839.38 ± 1.1 kg/m3, the mass density (303.15 K, x1 = 0.3717) was 852.13 ± 1.1 kg/m3 and the mass density (303.15 K, x1 = 0.4886) was 863.05 ± 1.1 kg/m3. It also gave a mass density (303.15 K, x1 = 0.5815) of 872.51 ± 1.1 kg/m3, a mass density (303.15 K, x1 = 0.6645) of 881.58 ± 1.1 kg/m3 and a mass density (303.15 K, x1 = 0.7545) of 892.16 ± 1.1 kg/m3. It also gave a mass density (303.15 K, x1 = 0.8324) of 902.01 ± 1.1 kg/m3, a mass density (303.15 K, x1 = 0.9121) of 912.85 ± 1.1 kg/m3 and a mass density (303.15 K, x1 = 1) of 925.8 ± 1.1 kg/m3. It also gave a viscosity (308.15 K, x1 = 0.1141) of 6.651 ± 0.18 mPa·s, a viscosity (308.15 K, x1 = 0.2218) of 5.497 ± 0.15 mPa·s and a viscosity (308.15 K, x1 = 0.3717) of 4.217 ± 0.12 mPa·s. It also gave a viscosity (308.15 K, x1 = 0.4886) of 3.43 ± 0.094 mPa·s, a viscosity (308.15 K, x1 = 0.5815) of 2.914 ± 0.079 mPa·s and a viscosity (308.15 K, x1 = 0.6645) of 2.523 ± 0.069 mPa·s. The viscosity (308.15 K, x1 = 0.7545) was 2.167 ± 0.059 mPa·s, the viscosity (308.15 K, x1 = 0.8324) was 1.913 ± 0.052 mPa·s and the viscosity (308.15 K, x1 = 0.9121) was 1.705 ± 0.046 mPa·s. The viscosity (308.15 K, x1 = 1) was 1.537 ± 0.041 mPa·s, the speed of sound (308.15 K, x1 = 0.1141) was 1345.2 ± 8.2 m/s and the speed of sound (308.15 K, x1 = 0.2218) was 1347.8 ± 8.2 m/s. For the same molecule, the speed of sound (308.15 K, x1 = 0.3717) was 1353.7 ± 8.3 m/s, the speed of sound (308.15 K, x1 = 0.4886) was 1359.9 ± 8.3 m/s and the speed of sound (308.15 K, x1 = 0.5815) was 1366 ± 8.3 m/s. The speed of sound (308.15 K, x1 = 0.6645) was 1372.5 ± 8.4 m/s, the speed of sound (308.15 K, x1 = 0.7545) was 1380.9 ± 8.4 m/s and the speed of sound (308.15 K, x1 = 0.8324) was 1389.7 ± 8.5 m/s. It also gave a speed of sound (308.15 K, x1 = 0.9121) of 1400.6 ± 8.6 m/s, a speed of sound (308.15 K, x1 = 1) of 1416 ± 8.6 m/s and a mass density (308.15 K, x1 = 0.1141) of 827.63 ± 1.1 kg/m3. The mass density (308.15 K, x1 = 0.2218) was 835.9 ± 1.1 kg/m3, the mass density (308.15 K, x1 = 0.3717) was 848.55 ± 1.1 kg/m3 and the mass density (308.15 K, x1 = 0.4886) was 859.44 ± 1.1 kg/m3. It also gave a mass density (308.15 K, x1 = 0.5815) of 868.83 ± 1.1 kg/m3, a mass density (308.15 K, x1 = 0.6645) of 877.84 ± 1.1 kg/m3 and a mass density (308.15 K, x1 = 0.7545) of 888.35 ± 1.1 kg/m3. The mass density (308.15 K, x1 = 0.8324) was 898.14 ± 1.1 kg/m3, the mass density (308.15 K, x1 = 0.9121) was 908.91 ± 1.1 kg/m3 and the mass density (308.15 K, x1 = 1) was 921.8 ± 1.1 kg/m3. For the same molecule, the viscosity (313.15 K, x1 = 0.1141) was 5.619 ± 0.15 mPa·s, the viscosity (313.15 K, x1 = 0.2218) was 4.671 ± 0.13 mPa·s and the viscosity (313.15 K, x1 = 0.3717) was 3.616 ± 0.099 mPa·s. It also gave a viscosity (313.15 K, x1 = 0.4886) of 2.963 ± 0.081 mPa·s, a viscosity (313.15 K, x1 = 0.5815) of 2.529 ± 0.069 mPa·s and a viscosity (313.15 K, x1 = 0.6645) of 2.199 ± 0.06 mPa·s. The viscosity (313.15 K, x1 = 0.7545) was 1.898 ± 0.052 mPa·s, the viscosity (313.15 K, x1 = 0.8324) was 1.687 ± 0.046 mPa·s and the viscosity (313.15 K, x1 = 0.9121) was 1.52 ± 0.041 mPa·s. The viscosity (313.15 K, x1 = 1) was 1.4 ± 0.038 mPa·s, the speed of sound (313.15 K, x1 = 0.1141) was 1329.2 ± 8.1 m/s and the speed of sound (313.15 K, x1 = 0.2218) was 1331.8 ± 8.1 m/s. For the same molecule, the speed of sound (313.15 K, x1 = 0.3717) was 1337.5 ± 8.2 m/s, the speed of sound (313.15 K, x1 = 0.4886) was 1343.5 ± 8.2 m/s and the speed of sound (313.15 K, x1 = 0.5815) was 1349.5 ± 8.2 m/s. The speed of sound (313.15 K, x1 = 0.6645) was 1355.7 ± 8.3 m/s, the speed of sound (313.15 K, x1 = 0.7545) was 1363.8 ± 8.3 m/s and the speed of sound (313.15 K, x1 = 0.8324) was 1372.3 ± 8.4 m/s. It also gave a speed of sound (313.15 K, x1 = 0.9121) of 1382.9 ± 8.4 m/s, a speed of sound (313.15 K, x1 = 1) of 1398 ± 8.5 m/s and a mass density (313.15 K, x1 = 0.1141) of 824 ± 1.1 kg/m3. The mass density (313.15 K, x1 = 0.2218) was 832.24 ± 1.1 kg/m3, the mass density (313.15 K, x1 = 0.3717) was 844.85 ± 1.1 kg/m3 and the mass density (313.15 K, x1 = 0.4886) was 855.71 ± 1.1 kg/m3. For the same molecule, the mass density (313.15 K, x1 = 0.5815) was 865.07 ± 1.1 kg/m3, the mass density (313.15 K, x1 = 0.6645) was 874.05 ± 1.1 kg/m3 and the mass density (313.15 K, x1 = 0.7545) was 884.52 ± 1.1 kg/m3. For the same molecule, the mass density (313.15 K, x1 = 0.8324) was 894.28 ± 1.1 kg/m3, the mass density (313.15 K, x1 = 0.9121) was 905.03 ± 1.1 kg/m3 and the mass density (313.15 K, x1 = 1) was 917.9 ± 1.1 kg/m3. The viscosity (318.15 K, x1 = 0.1141) was 4.835 ± 0.13 mPa·s, the viscosity (318.15 K, x1 = 0.2218) was 4.032 ± 0.11 mPa·s and the viscosity (318.15 K, x1 = 0.3717) was 3.137 ± 0.085 mPa·s. For the same molecule, the viscosity (318.15 K, x1 = 0.4886) was 2.582 ± 0.07 mPa·s, the viscosity (318.15 K, x1 = 0.5815) was 2.21 ± 0.06 mPa·s and the viscosity (318.15 K, x1 = 0.6645) was 1.928 ± 0.052 mPa·s. For the same molecule, the viscosity (318.15 K, x1 = 0.7545) was 1.672 ± 0.045 mPa·s, the viscosity (318.15 K, x1 = 0.8324) was 1.493 ± 0.04 mPa·s and the viscosity (318.15 K, x1 = 0.9121) was 1.359 ± 0.037 mPa·s. For the same molecule, the viscosity (318.15 K, x1 = 1) was 1.276 ± 0.034 mPa·s, the speed of sound (318.15 K, x1 = 0.1141) was 1320.2 ± 8 m/s and the speed of sound (318.15 K, x1 = 0.2218) was 1321.6 ± 8.1 m/s. For the same molecule, the speed of sound (318.15 K, x1 = 0.3717) was 1326.2 ± 8.1 m/s, the speed of sound (318.15 K, x1 = 0.4886) was 1331 ± 8.1 m/s and the speed of sound (318.15 K, x1 = 0.5815) was 1336 ± 8.2 m/s. The speed of sound (318.15 K, x1 = 0.6645) was 1341.2 ± 8.2 m/s, the speed of sound (318.15 K, x1 = 0.7545) was 1348 ± 8.2 m/s and the speed of sound (318.15 K, x1 = 0.8324) was 1355.4 ± 8.3 m/s. The speed of sound (318.15 K, x1 = 0.9121) was 1364.7 ± 8.3 m/s, the speed of sound (318.15 K, x1 = 1) was 1378 ± 8.4 m/s and the mass density (318.15 K, x1 = 0.1141) was 819.43 ± 1.1 kg/m3. For the same molecule, the mass density (318.15 K, x1 = 0.2218) was 827.69 ± 1.1 kg/m3, the mass density (318.15 K, x1 = 0.3717) was 840.35 ± 1.1 kg/m3 and the mass density (318.15 K, x1 = 0.4886) was 851.26 ± 1.1 kg/m3. The mass density (318.15 K, x1 = 0.5815) was 860.67 ± 1.1 kg/m3, the mass density (318.15 K, x1 = 0.6645) was 869.69 ± 1.1 kg/m3 and the mass density (318.15 K, x1 = 0.7545) was 880.21 ± 1.1 kg/m3. The mass density (318.15 K, x1 = 0.8324) was 890.03 ± 1.1 kg/m3, the mass density (318.15 K, x1 = 0.9121) was 900.83 ± 1.1 kg/m3 and the mass density (318.15 K, x1 = 1) was 913.8 ± 1.1 kg/m3.

Source: the NIST ThermoML archive (doi:10.1016/j.jct.2016.12.019)
